# Measured values: US20250084039A1, “4-SUBSTITUTED AMINOISOQUINOLINE DERIVATIVES” (Purdue Research Foundation, priority 2016, published 2025)
# Read-outs that look alike come from different tables or passages of the source.
# What was measured:
# THP1 = experiment: Selectivity, proliferation IC50; assay type: cell-based; settings: Homo sapiens, THP-1; read-out: IC50 THP1 (non-FLT3-driven AML line)
# Experimental: (§1) Cell lines were seeded into 96-well plates the afternoon prior to treatment. Approximately 18 hours later, compounds were diluted in dimethyl sulfoxide (DMSO) and added to cells. Plates were incubated for 72 hours and cells viability determined with CellTiter-Blue Cell Viability Assay (Promega, Madison, WI). Plates were read after 4 additional hours of incubation at 37° C. using plate reader (Bio-Tek, Winooski. VT). Data was analyzed and graphed using GraphPad Prism Software (Graphpad. La Jolla, CA).
# HL60 = experiment: Selectivity, proliferation IC50; assay type: cell-based; settings: Homo sapiens, HL-60; read-out: IC50 HL60 (acute promyelocytic leukemia)
# Experimental: as §1
# Kasumi-1 = experiment: Selectivity, proliferation IC50; assay type: cell-based; settings: Homo sapiens, read-out: IC50 Kasumi-1 (non-FLT3 AML line)
# Experimental: as §1
# FLT3 phosphorylation = experiment: Western blot in MV4-11; assay type: cell-based, human
# Experimental: Total protein extracts were prepared using RIPA buffer (SIGMA) supplemented with Complete Mini™ protease inhibitor and PHOStop™ phosphatase inhibitors (Roche). […] The membrane was blocked with 5% dry milk in 1×TBS/0.1% Tween 20 (TBST) for at least 1 h at room temperature and incubated with human specific primary antibodies: FLT3, Phospho-FLT3, c-Myc (Cell Signaling Technologies), KRAS (Santa Cruz), or mouse anti-β-actin (SIGMA) overnight at 4° C. The membrane was washed 3 times in TBST and incubated with a horseradish peroxidase-conjugated secondary anti-rabbit or anti-mouse antibody (Cell Signaling Technologies) for 1 h at room temperature. Blots were again washed and the signal was detected with SuperSignal West Femto Chemiluminescent Substrate (Pierce) and exposed to HyBlot CL® autoradiography film (Denville).
# p-38 phosphorylation = experiment: Western blot in MV4-11; assay type: cell-based, human
# Experimental: (§2) Effect of HSW630-1 on protein expression was tested in the MV4-11 leukemia cell line. Total protein extracts were prepared using RIPA buffer (SIGMA) supplemented with Complete Mini™ protease inhibitor and PHOStop™ phosphatase inhibitors (Roche). Equal amounts of proteins (up to 25 μg) were separated on 4-12% NuPAGE gels in 1×MOPS or 1×MES buffer (Invitrogen) and transferred onto PVDF membranes (Millipore). The membrane was blocked with 5% dry milk in 1×TBS/0.1% Tween 20 (TBST) for at least 1 h at room temperature and incubated with human specific primary antibodies: FLT3, Phospho-FLT3, c-Myc (Cell Signaling Technologies), KRAS (Santa Cruz), or mouse anti-β-actin (SIGMA) overnight at 4° C. The membrane was washed 3 times in TBST and incubated with a horseradish peroxidase-conjugated secondary anti-rabbit or anti-mouse antibody (Cell Signaling Technologies) for 1 h at room temperature. Blots were again washed and the signal was detected with SuperSignal West Femto Chemiluminescent Substrate (Pierce) and exposed to HyBlot CL® autoradiography film (Denville).
# (§3) To determine if the phosphorylation of FLT3, SRC kinase and downstream effectors or kinases (such as STAT3 [44], STAT5 [45] and p-38 [46]) could be affected by the compounds. […] The level of SRC kinase increased over time (amount at the 48 h time point is greater than at the 6 and 24 h time points). Unfortunately the bands for the phosphorylated SRC kinase are blurred despite repeated attempts to get clearer bands. […] From the above Western analyses, it is confirmed that the proliferation inhibition of MV4-11 is due to the inhibition of FLT3 signaling axis.
# STAT5 phosphorylation = experiment: Western blot in MV4-11; assay type: cell-based, human
# Experimental: as §2, §3
# STAT3 phosphorylation = experiment: Western blot in MV4-11; assay type: cell-based, human
# Experimental: as §2, §3
# MV4-11 [1] = experiment: Proliferation inhibition screen at 100 nM; assay type: cell-based; settings: 100 nM compound, FIG. 10
# Experimental: To determine inhibition at 100 nM or […], 96-well plates were seeded the afternoon before treatment. Plates were then treated with compound diluted in dimethyl sulfoxide (DMSO) as well as a DMSO control the following day for 72 hours. After this time the plates were then treated with 10 μL of CellTiter-Blue Cell Viability Assay (Promega, Madison, WI) for 4 hours. Then the plates were read on a plate reader (Bio-Tek, Winooski, VT). Data was analyzed on Excel as a percent of the DMSO vehicle.
# From these cell proliferation studies, MV4-11 appeared to be more sensitive to the compounds than the other cell lines (Table 6A). […] To identify group of compounds potently inhibiting cancer cell proliferation, a lower concentration of compounds (100 nM) were used to screen against MV4-11 (FIG. 10). From these experiments, potent amide compounds A7, A10, A15, A16, A18, A20, B15 and D30 (as indicated by ***, FIG. 10) were selected. […] Typically amides that contain basic amines are included in compound libraries to improve aqueous solubility but it appears that the presence of a basic amine in the side chain of the compounds also facilitated the actual inhibition of MV4-11 proliferation.
# MV4-11 [2] = experiment: In vivo efficacy, NSG mice injected with MV4-11; settings: 25 mg/kg, three times per week, NSG mice with MV4-11
# Experimental: Method: Six week old female NSG mice were injected intravenously with 1×10^6 logarithmically growing MV4-11 cells expressing luciferase (MV4-11). Luciferase expressing leukemia cells were imaged using the IVIS Xenogen system (Perkin Elmer, Waltham MA). On day of imaging, mice are injected IP with 150 mg/kg luciferin (Perkin Elmer, Waltham, MA), anaesthetized and then placed in imaging chamber. Maximal luminescence is recorded and then averaged among each treatment group. Ten days post cell injection, mice were imaged and then sorted into groups so that leukemic burden was similar and dosing started. Mice were dosed either with vehicle (10% DMSO/10% Tween 20/80% saline) or 25 mg/kg of compounds three times per week for the duration of the experiment. Mice were weighed and observed five days per week and imaged once per week.
# MV4-11 [3] = experiment: Activity against AML cell line MV4-11 (CellTiter-Blue, 72 h); assay type: cell-based
# Outline: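 Suspension cells seeded at 4000 per well, left overnight, then exposed to compound from 10 nM to 100 μM for 72 h. Viability by CellTiter-Blue resazurin fluorescence after 4 h (Ex 560, Em 590); IC50 from concentration-response.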
# FLT3 ITD = FLT3 ITD (Homo sapiens, UniProt P36888)
# FLT3 ITD, sequence (P36888 whole entry, looked up, change not shown): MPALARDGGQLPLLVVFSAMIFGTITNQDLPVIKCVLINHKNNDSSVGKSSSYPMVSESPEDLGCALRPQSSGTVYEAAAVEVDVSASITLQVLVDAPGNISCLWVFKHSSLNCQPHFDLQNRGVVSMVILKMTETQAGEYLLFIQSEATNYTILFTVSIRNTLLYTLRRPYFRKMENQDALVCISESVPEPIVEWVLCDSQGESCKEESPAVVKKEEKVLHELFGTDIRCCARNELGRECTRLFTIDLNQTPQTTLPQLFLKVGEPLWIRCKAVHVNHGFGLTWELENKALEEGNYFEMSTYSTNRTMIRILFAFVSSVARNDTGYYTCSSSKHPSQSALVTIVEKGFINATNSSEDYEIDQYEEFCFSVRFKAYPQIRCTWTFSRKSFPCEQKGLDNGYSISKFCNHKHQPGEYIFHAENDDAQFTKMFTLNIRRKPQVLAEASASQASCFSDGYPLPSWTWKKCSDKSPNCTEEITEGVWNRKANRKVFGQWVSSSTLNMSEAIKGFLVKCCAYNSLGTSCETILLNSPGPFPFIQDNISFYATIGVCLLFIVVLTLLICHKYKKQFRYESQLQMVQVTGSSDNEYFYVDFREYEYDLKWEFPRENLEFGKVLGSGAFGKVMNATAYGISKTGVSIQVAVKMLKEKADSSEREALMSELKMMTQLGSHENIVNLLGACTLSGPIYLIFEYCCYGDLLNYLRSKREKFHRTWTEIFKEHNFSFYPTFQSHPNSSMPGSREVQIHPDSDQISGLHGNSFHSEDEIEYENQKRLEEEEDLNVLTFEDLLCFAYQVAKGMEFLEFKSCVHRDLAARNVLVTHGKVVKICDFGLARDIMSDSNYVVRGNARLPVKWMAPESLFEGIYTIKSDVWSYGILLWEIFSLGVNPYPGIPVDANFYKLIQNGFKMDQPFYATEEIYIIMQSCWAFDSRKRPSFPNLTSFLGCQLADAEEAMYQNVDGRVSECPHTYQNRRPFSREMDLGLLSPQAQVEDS
# FLT3 = FLT3 (Homo sapiens (Human), UniProt P36888); experiment: Inhibition of kinase enzymatic activity (IC50); assay type: biochemical; settings: in vitro
# FLT3, sequence (P36888 27-993): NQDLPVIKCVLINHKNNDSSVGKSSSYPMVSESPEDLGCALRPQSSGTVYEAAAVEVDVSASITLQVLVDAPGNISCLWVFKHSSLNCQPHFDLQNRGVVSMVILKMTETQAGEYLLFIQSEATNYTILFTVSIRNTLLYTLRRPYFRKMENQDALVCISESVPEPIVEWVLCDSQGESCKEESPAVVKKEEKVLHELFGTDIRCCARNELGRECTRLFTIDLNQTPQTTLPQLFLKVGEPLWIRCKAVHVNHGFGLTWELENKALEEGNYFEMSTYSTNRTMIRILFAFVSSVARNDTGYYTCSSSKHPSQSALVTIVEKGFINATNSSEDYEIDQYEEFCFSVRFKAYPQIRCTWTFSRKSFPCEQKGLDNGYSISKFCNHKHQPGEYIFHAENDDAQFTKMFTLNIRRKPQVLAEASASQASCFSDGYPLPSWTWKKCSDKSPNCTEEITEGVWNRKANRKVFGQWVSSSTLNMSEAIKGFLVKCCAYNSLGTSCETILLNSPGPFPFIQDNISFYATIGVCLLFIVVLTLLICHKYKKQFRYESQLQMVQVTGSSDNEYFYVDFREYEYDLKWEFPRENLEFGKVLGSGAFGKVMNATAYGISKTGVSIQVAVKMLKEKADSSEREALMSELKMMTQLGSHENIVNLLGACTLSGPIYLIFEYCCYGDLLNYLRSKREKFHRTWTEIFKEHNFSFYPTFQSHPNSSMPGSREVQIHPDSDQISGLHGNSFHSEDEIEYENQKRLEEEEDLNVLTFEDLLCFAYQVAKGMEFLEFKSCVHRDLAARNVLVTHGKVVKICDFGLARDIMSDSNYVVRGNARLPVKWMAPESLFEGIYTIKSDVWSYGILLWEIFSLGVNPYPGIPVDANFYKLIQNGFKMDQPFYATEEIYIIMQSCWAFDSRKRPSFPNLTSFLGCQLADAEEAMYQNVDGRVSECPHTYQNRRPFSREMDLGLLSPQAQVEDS
smiles,measurement,setting,value
Cc1ccc(C(=O)Nc2ccc(CN3CCN(C)CC3)c(C(F)(F)F)c2)cc1C#Cc1c(N)ncc2ccc(Cl)cc12 [HSN286],IC50,THP1,2320 nM
same,IC50,HL60,2160 nM
same,IC50,Kasumi-1,> 10000 nM
same,FLT3 phosphorylation (Western),FLT3 phosphorylation,inhibited
same,p-38 phosphorylation (Western),p-38 phosphorylation,inhibited
same,STAT5 phosphorylation (Western),STAT5 phosphorylation,inhibited
same,STAT3 phosphorylation (Western),STAT3 phosphorylation,inhibited
same,inhibition of MV4-11 proliferation in words,MV4-11 [1],potent
same,in-vivo efficacy (survival),MV4-11 [2],not efficacious
CN(C)CC(O)CNC(=O)c1ccc(C#Cc2c(N)ncc3ccc(Cl)cc23)cc1 (centres unmarked) [HSM1702],IC50,"MV4-11 [3]; 72 h, read-out: IC50 against MV4-11/uM",0.003 µM
same,IC50,"MV4-11 [3]; FIG. 1, read-out: anticancer activities (IC50) against MV4-11",0.003 µM
same,IC50,"MV4-11 [3]; Table 2, read-out: IC50 (nM) against MV4-11 (AML cell line)",0.0055 ± 0.0013 µM
"Cc1ccc(C(=O)Nc2ccc(CN3CCN(C)CC3)c(C(F)(F)F)c2)cc1C#Cc1cnc(N)c2ncccc12 [HSN356, 3-((8-amino-1,7-naphthyridin-5-yl)ethynyl)-4-methyl-N-(4-((4-methylpiperazin-1-yl)methyl)-3-(trifluoromethyl)phenyl)benzamide]",IC50 FLT3 ITD enzymatic inhibition,FLT3 ITD,single digit
same,IC50 FLT3 enzymatic inhibition,FLT3,single digit
